What was measured:
[1] = test system: GSPY1 cells (Thyroid cancer; Papillary); assay: Cell proliferation IC50 (MTT), patient-derived papillary thyroid cancer cells GSPY1; type: cell-based; details: Homo sapiens, PTC stage IV, mean ± SEM, read-out: cell proliferation IC50 - half maximal inhibitory concentration
[2] = test system: FGFR signaling (e.g. PKC, MEK, p-ERK) (FGFR 시그널링); assay: FGFR signaling in young-patient-derived cancer cells; type: cell-based, human; details: young-patient-derived cancer cell lines
[3] = test system: GSPO1 cells (Thyroid cancer; Papillary); assay: Cell proliferation IC50 (MTT), patient-derived papillary thyroid cancer cells GSPO1 (second line of the same label); type: cell-based; details: Homo sapiens, adult patient, by order of Table 3, PTC stage IV, mean ± SEM, read-out: cell proliferation IC50 - half maximal inhibitory concentration
[4] = test system: GSPO1 cells (Thyroid cancer; Papillary); assay: Cell proliferation IC50 (MTT), patient-derived papillary thyroid cancer cells GSPO1 (first line); type: cell-based; details: Homo sapiens, adult patient, by order of Table 3, PTC stage IV, mean ± SEM, read-out: cell proliferation IC50 - half maximal inhibitory concentration
[5] = test system: GSPY2 cells (Thyroid cancer; Papillary); assay: Cell proliferation IC50 (MTT), patient-derived papillary thyroid cancer cells GSPY2; type: cell-based; details: Homo sapiens, PTC stage IV, mean ± SEM, read-out: cell proliferation IC50 - half maximal inhibitory concentration
[6] = test system: cancer cells from young patients (어린 환자의 암 세포); assay: Cell count over 7 days after drug treatment, young-patient papillary thyroid cancer cells; type: cell-based, human; details: unlike sorafenib, Figs. 4 to 7
[7] = test system: EMT protein (e.g. Snail, Zeb1) (EMT 단백질); assay: EMT protein expression in young-patient-derived cancer cells; type: cell-based, human; details: young-patient-derived cancer cell lines

CCN(CC)C(=S)SSC(=S)N(CC)CC [Disulfiram, 디에틸카르바모티올설파닐 N,N-디에틸카르바모디티오에이트]
IC50 [1]: 0.305 µM
inhibition of FGFR signaling [2]: FGFR 시그널링(예를 들면, PKC, MEK, p-ERK 등)을 억제
IC50 [3]: 0.21 µM
IC50 [4]: 0.22 µM
IC50 [5]: 0.304 µM
inhibition of cancer proliferation (cell number) [6]: 어린 환자에게서 더 효과적으로 암의 증식을 억제하는 것을 확인할 수 있었다
effect on EMT protein expression [7]: EMT 단백질의 발현(예를 들면, Snail, Zeb1 등)을 억제(down-regulated)

CNC(=O)c1cc(Oc2ccc(NC(=O)Nc3ccc(Cl)c(C(F)(F)F)c3)cc2)ccn1 [Sorafenib, 4-[4-[[[[4-클로로-3-(트리플루오르메틸)페닐]아미노]카르복실]아미노]페녹시]-N-메틸-2-피리딘카르복사미드]
IC50 [1]: 17.2 µM
IC50 [3]: 10.1 µM
IC50 [4]: 9.84 µM
IC50 [5]: 20.2 µM
effect on EMT protein expression [7]: FGFR을 기반으로 하는 EMT 단백질 발현에 영향을 주지 않는

Reference: KR20210106935A, “암의 예방 또는 치료용 조성물” (연세대학교 산학협력단, priority 2019, dated 2021)
